What was measured:
Type in all cases: cell-based
Aspergillus flavus = test: Agar plate disc-diffusion, antifungal inhibition zone; conditions: Sabouraud's dextrose agar, 72 h
Experimental: (§1) The agar plate disc-diffusion method was applied. […] The discs were then placed onto the surface of agar plates (nutrient agar for bacteria and Sabouraud's dextrose agar for fungi) seeded with the test organism. Each plate contained 15 mL of the agar medium, previously seeded with 0.2 mL of the broth culture of each organism pregrown for 18 h. The plates were incubated at 37° C. for 48 h, and 72 h for fungi. The inhibition zones was measured in mm. Discs impregnated with DMSO were used as a control, and its inhibition zone was subtracted from the tested compound actual inhibition zone.

[1] = tested on: Chrysosporium keratinophilum; test: as above; conditions: Sabouraud's dextrose agar, 72 h
Experimental: as §1

Escherichia coli = test: Agar plate disc-diffusion, antibacterial inhibition zone; conditions: nutrient agar, 37° C., 48 h
Experimental: as §1

Pseudomonas aeruginosa = test: as above; conditions: nutrient agar, 37° C., 48 h
Experimental: as §1

Bacillus cereus = test: as above; conditions: nutrient agar, 37° C., 48 h
Experimental: as §1

Staphylococcus aureus = test: as above; conditions: nutrient agar, 37° C., 48 h
Experimental: as §1

[2] = A = concentration of comp. = 10,000 μL
[3] = B = concentration of comp. = 30,000 μL
[4] = C = concentration of comp. = 50,000 μL

Structure (SMILES)	inhibition zone, Aspergillus flavus (Aspergillus flavus; [2]) [mm]	inhibition zone, Aspergillus flavus (Aspergillus flavus; [3]) [mm]	inhibition zone, Aspergillus flavus (Aspergillus flavus; [4]) [mm]	inhibition zone, Chrysosporium keratinophilum [1, 2] [mm]	inhibition zone, Chrysosporium keratinophilum [1, 3] [mm]	inhibition zone, Chrysosporium keratinophilum [1, 4] [mm]	inhibition zone, Escherichia coli (Escherichia coli; [2]) [mm]	inhibition zone, Escherichia coli (Escherichia coli; [3]) [mm]	inhibition zone, Escherichia coli (Escherichia coli; [4]) [mm]	inhibition zone, Pseudomonas aeruginosa (Pseudomonas aeruginosa; [2]) [mm]	inhibition zone, Pseudomonas aeruginosa (Pseudomonas aeruginosa; [3]) [mm]	inhibition zone, Pseudomonas aeruginosa (Pseudomonas aeruginosa; [4]) [mm]	inhibition zone, Bacillus Cereus (Bacillus cereus; [2]) [mm]	inhibition zone, Bacillus Cereus (Bacillus cereus; [3]) [mm]	inhibition zone, Bacillus Cereus (Bacillus cereus; [4]) [mm]	inhibition zone, Staphylococcus aureus (Staphylococcus aureus; [2]) [mm]	inhibition zone, Staphylococcus aureus (Staphylococcus aureus; [3]) [mm]	inhibition zone, Staphylococcus aureus (Staphylococcus aureus; [4]) [mm]
COc1ccc(-c2nc(-c3ccc(Br)cc3)c(-c3ccc(Br)cc3)n2CCCCCC(=O)O)cc1 [V, 6-(4,5-bis(4-bromophenyl)-2-(4-methoxyphenyl)-1H-imidazol-1-yl)hexanoic acid]	25	28	35	25	27	47	27	35	49	26	28	40	18	20	35	21	28	38
O=C(O)c1cn(C2CC2)c2cc(N3CCNCC3)c(F)cc2c1=O [Cip., reference compound]	28	31	43	–	33	55	–	–	–	–	–	–	–	31	–	–	–	–

— US12195430B1, “6-(4,5-bis(4-bromophenyl)-2-(4-methoxyphenyl)-1H-imidazol-1-yl)hexanoic acid as an antimicrobial compound” (KING FAISAL UNIVERSITY, priority 2023, dated 2025)
